This data set deals with CCRIS mutagenicity, Ames/micronucleus/aberration tests. As to the kind of experiment: CCRIS mutagenicity studies.
Where [1] appears, read: Test System: AMES SALMONELLA TYPHIMURIUM, Strain/Indicator: TA100, Metabolic Activation: NONE, Method: STANDARD PLATE.
Setting [2] is: Test System: AMES SALMONELLA TYPHIMURIUM, Strain/Indicator: TA98, Metabolic Activation: NONE, Method: PREINCUBATION
Where [3] appears, read: Test System: AMES SALMONELLA TYPHIMURIUM, Strain/Indicator: TA100, Metabolic Activation: NONE, Method: PREINCUBATION

From PubChem BioAssay AID1259407 (Chemical Carcinogenesis Research Information System (CCRIS), 2018) come the findings set out here.

Activity calls are given as the source filed them. The rule behind the calls is not given here.

Consider `Cc1cccn2c(=O)c(-c3nnn[nH]3)cnc12`, for which the mutagenic call is “inactive; negative” (Test System: AMES SALMONELLA TYPHIMURIUM, Strain/Indicator: TA98, Metabolic Activation: NONE, Method: STANDARD PLATE); “inactive; negative” (Test System: AMES SALMONELLA TYPHIMURIUM, Strain/Indicator: TA98, Metabolic Activation: S-9, Method: STANDARD PLATE); “inactive; negative” under setting [1]; “inactive; negative” (Test System: AMES SALMONELLA TYPHIMURIUM, Strain/Indicator: TA100, Metabolic Activation: S-9, Method: STANDARD PLATE); “inactive; negative” (Test System: AMES SALMONELLA TYPHIMURIUM, Strain/Indicator: TA1535, Metabolic Activation: NONE, Method: STANDARD PLATE); “inactive; negative” (Test System: AMES SALMONELLA TYPHIMURIUM, Strain/Indicator: TA1535, Metabolic Activation: S-9, Method: STANDARD PLATE). In addition, the mutagenic call is “inactive; negative” (Test System: AMES SALMONELLA TYPHIMURIUM, Strain/Indicator: TA1537, Metabolic Activation: NONE, Method: STANDARD PLATE); “inactive; negative” (Test System: AMES SALMONELLA TYPHIMURIUM, Strain/Indicator: TA1537, Metabolic Activation: S-9, Method: STANDARD PLATE); “inactive; negative” (Test System: AMES SALMONELLA TYPHIMURIUM, Strain/Indicator: TA1538, Metabolic Activation: NONE, Method: STANDARD PLATE); “inactive; negative” (Test System: AMES SALMONELLA TYPHIMURIUM, Strain/Indicator: TA1538, Metabolic Activation: S-9, Method: STANDARD PLATE); “inactive; negative” (Test System: E. COLI, Strain/Indicator: WP2 UVRA, Metabolic Activation: NONE, Method: STANDARD PLATE); “inactive; negative” (Test System: E. COLI, Strain/Indicator: WP2 UVRA, Metabolic Activation: S-9, Method: STANDARD PLATE).

Consider `O=[N+]([O-])c1ccc(CCO)cc1`, for which the mutagenic call reads like this: (Test System: AMES SALMONELLA TYPHIMURIUM, Strain/Indicator: TA97, Metabolic Activation: HAMSTER, LIVER, S-9, AROCLOR 1254 (10%), Method: PREINCUBATION) “inactive; negative”; (Test System: AMES SALMONELLA TYPHIMURIUM, Strain/Indicator: TA97, Metabolic Activation: NONE, Method: PREINCUBATION) “inactive; negative”; (Test System: AMES SALMONELLA TYPHIMURIUM, Strain/Indicator: TA97, Metabolic Activation: RAT, LIVER, S-9, AROCLOR 1254 (10%), Method: PREINCUBATION) “inactive; negative”; (Test System: AMES SALMONELLA TYPHIMURIUM, Strain/Indicator: TA98, Metabolic Activation: HAMSTER, LIVER, S-9, AROCLOR 1254 (10%), Method: PREINCUBATION) “active; positive”; under setting [2], “active; positive”; (Test System: AMES SALMONELLA TYPHIMURIUM, Strain/Indicator: TA98, Metabolic Activation: RAT, LIVER, S-9, AROCLOR 1254 (10%), Method: PREINCUBATION) “active; positive”. For the same molecule, the mutagenic call is, setting by setting: (Test System: AMES SALMONELLA TYPHIMURIUM, Strain/Indicator: TA100, Metabolic Activation: HAMSTER, LIVER, S-9, AROCLOR 1254 (10%), Method: PREINCUBATION) “active; positive”; under setting [3], “inactive; negative”; (Test System: AMES SALMONELLA TYPHIMURIUM, Strain/Indicator: TA100, Metabolic Activation: RAT, LIVER, S-9, AROCLOR 1254 (10%), Method: PREINCUBATION) “active; positive”; (Test System: AMES SALMONELLA TYPHIMURIUM, Strain/Indicator: TA1535, Metabolic Activation: HAMSTER, LIVER, S-9, AROCLOR 1254 (10%), Method: PREINCUBATION) “active; positive”; (Test System: AMES SALMONELLA TYPHIMURIUM, Strain/Indicator: TA1535, Metabolic Activation: NONE, Method: PREINCUBATION) “inactive; negative”; (Test System: AMES SALMONELLA TYPHIMURIUM, Strain/Indicator: TA1535, Metabolic Activation: RAT, LIVER, S-9, AROCLOR 1254 (10%), Method: PREINCUBATION) “active; positive”.

Consider `Cc1cc2ccccc2c2ccc3ccccc3c12`, for which the mutagenic call is, setting by setting: (End Point: Chinese hamster lung fibroblasts, Strain/Indicator: V79MZ/HPRT/6-Thioguanidine, Metabolic Activation: Stably transfected human CYP1A1 (hCYP1A1), Method: Preincubation) “active; positive. highly potent. protection against mutagenicity by human glutathione s-”; (End Point: Chinese hamster lung fibroblasts, Strain/Indicator: V79MZ/HPRT/6-Thioguanidine, Metabolic Activation: Stably transfected human CYP1B1 (hCYP1B1), Method: Preincubation) “active; positive. highly potent. protection against mutagenicity by human glutathione s-”; under setting [2], “inactive; negative”; (Test System: AMES SALMONELLA TYPHIMURIUM, Strain/Indicator: TA98, Metabolic Activation: RAT, LIVER, S-9, AROCLOR 1254, Method: STANDARD PLATE) “active; positive”; (Test System: AMES SALMONELLA TYPHIMURIUM, Strain/Indicator: TA98, Metabolic Activation: RAT, LIVER, S-9, Method: PREINCUBATION) “active; positive”; under setting [3], “inactive; negative”. In addition, the mutagenic call under setting [1] was “inactive; negative”; the mutagenic call (Test System: AMES SALMONELLA TYPHIMURIUM, Strain/Indicator: TA100, Metabolic Activation: RAT, LIVER, MICROSOMES, 5-METHYLCHRYSENE, Method: STANDARD PLATE) is “inactive; negative”; the mutagenic call (Test System: AMES SALMONELLA TYPHIMURIUM, Strain/Indicator: TA100, Metabolic Activation: RAT, LIVER, MICROSOMES, AROCLOR 1254, Method: STANDARD PLATE) is “active; positive”; the mutagenic call (Test System: AMES SALMONELLA TYPHIMURIUM, Strain/Indicator: TA100, Metabolic Activation: RAT, LIVER, MICROSOMES, Method: STANDARD PLATE) is “inactive; negative”; the mutagenic call (Test System: AMES SALMONELLA TYPHIMURIUM, Strain/Indicator: TA100, Metabolic Activation: RAT, LIVER, S-9, AROCLOR 1254, Method: STANDARD PLATE) is “active; positive”; the mutagenic call (Test System: AMES SALMONELLA TYPHIMURIUM, Strain/Indicator: TA100, Metabolic Activation: RAT, LIVER, S-9, Method: PREINCUBATION) is “active; positive”.

On to `CSC1=N[C@@](C)(c2ccccc2)C(=O)N1Nc1ccccc1`, for which the mutagenic call was “active; positive” (End Point: In vitro chromosomal aberrations, Test System: Human peripheral blood lymphocytes, Metabolic Activation: None); “active; positive” (End Point: In vitro chromosomal aberrations, Test System: Human peripheral blood lymphocytes, Metabolic Activation: S-9); “inactive; negative” (End Point: In vivo micronucleus, Test System: Bone marrow polychromatic erythrocytes, Species: Mouse, Strain/Sex: CD-1/Male and female, Route: Intraperitoneal); “inactive; negative. (higher doses too toxic to score)” (End Point: UDS, Test System: Rat hepatocytes, Species: Wistar/Male, Method: Autoradiography); “inactive; negative” (Test System: Ames Salmonella typhimurium, Strain/Indicator: TA98, Metabolic Activation: None, Method: Plate incorporation and preincubation); “inactive; negative” (Test System: Ames Salmonella typhimurium, Strain/Indicator: TA98, Metabolic Activation: Rat, Liver, S-9, Method: Plate incorporation and preincubation). The mutagenic call reads like this: (Test System: Ames Salmonella typhimurium, Strain/Indicator: TA100, Metabolic Activation: None, Method: Plate incorporation and preincubation) “inactive; negative”; (Test System: Ames Salmonella typhimurium, Strain/Indicator: TA100, Metabolic Activation: Rat, Liver, S-9, Method: Plate incorporation and preincubation) “inactive; negative”; (Test System: Ames Salmonella typhimurium, Strain/Indicator: TA102, Metabolic Activation: None, Method: Plate incorporation and preincubation) “inactive; negative”; (Test System: Ames Salmonella typhimurium, Strain/Indicator: TA102, Metabolic Activation: Rat, Liver, S-9, Method: Plate incorporation and preincubation) “inactive; negative”; (Test System: Ames Salmonella typhimurium, Strain/Indicator: TA1535, Metabolic Activation: None, Method: Plate incorporation and preincubation) “inactive; negative”; (Test System: Ames Salmonella typhimurium, Strain/Indicator: TA1535, Metabolic Activation: Rat, Liver, S-9, Method: Plate incorporation and preincubation) “inactive; negative”. In addition, the mutagenic call runs as follows: (Test System: Ames Salmonella typhimurium, Strain/Indicator: TA1537, Metabolic Activation: None, Method: Plate incorporation and preincubation) “inactive; negative”; (Test System: Ames Salmonella typhimurium, Strain/Indicator: TA1537, Metabolic Activation: Rat, Liver, S-9, Method: Plate incorporation and preincubation) “inactive; negative”; (Test System: Mouse lymphoma, Strain/Indicator: L5178Y (tk+/tk-), Metabolic Activation: None, Method: Microtiter fluctuation) “inactive; negative”; (Test System: Mouse lymphoma, Strain/Indicator: L5178Y (tk+/tk-), Metabolic Activation: S-9, Method: Microtiter fluctuation) “active; positive. (increase in small colony mutant frequency indicates clastogenicity)”.
